The record followed here is patent publication US7964631B2, “Fused tricyclic compounds as inhibitors of tumor necrosis factor-α” (Piramal Life Sciences Limited, priority 2004, dated 2011).

Structures are written as SMILES.

The subject of data set [1] is peripheral blood mononuclear cells (PBMC). Description: Cytotoxicity of test compounds in PBMC, cell viability by MTS reagent. Type of data set: cell-based, human. On the procedure:
(§1) TNF-α production by LPS in peripheral blood mononuclear cells (PBMC) was measured according to the method described by Henry et al (J. Bioorg. Med. Chem. Lett., 8: 3335-3340, 1998). Briefly, blood was collected from healthy donors into Potassium EDTA vacutainer tubes (Vacutest Plast/Becton Dickinson). PBMC were isolated using gradient centrifugation in Ficoll-Paque solution (Pharmacia). Isolated PBMC were suspended in RPMI 1640 culture medium (Gibco BRL, Pasley, UK) containing 10% fetal bovine serum (FBS) (Hyclone, Utah, USA), 100 U/ml penicillin (Sigma Chemical Co. St Louis, Mo.) and 100 μg/ml streptomycin (Sigma Chemical Co. St Louis, Mo.). The cell concentration was adjusted to 1×10^6 cells/ml. The viability as determined by trypan blue dye exclusion was uniformly ≧98%. The cell suspension (100 μl) was added to the wells of a 96-well culture plate. Following cell plating, 79 μl of the culture medium and 1 μl of eight different concentrations of the test compounds (final concentration 0.03, 0.1, 0.3, 1, 3, 10, 30, 100 μM) dissolved in DMSO (dimethylsulfoxide, Sigma, Mo., USA) were added to the cells. The final concentration of DMSO was adjusted to 0.5%. The appropriate DMSO concentration was used as control. Rolipram (30 μM) was used as a standard compound. The plates were incubated for 30 min at 37° C. in an atmosphere of 5% CO2. Finally, 20 μl (10 μg/ml) per well of LPS, (Escherchia coli 0127:B8, Sigma Chemical Co., St. Louis, Mo.) was added, for a final concentration of 1 μg/ml. The plates were incubated at 37° C. for 4.5 h in an atmosphere of 5% CO2. To determine the cytotoxicity of the test compounds, the cell viability was assessed using MTS (3-(4,5-dimethylthiazol-2-yl)-5-(3-carboxymethoxyphenyl)-2-(4-sulfonyl)-2H-tetrazolium) reagent (Promega) after 4.5 h of incubation. Supernatants were harvested and assayed for TNF-α by ELISA as described by the manufacturer (R&D Systems, MN, BD Biosciences Pharmingen) or by cytotoxicity bioassay in L929 cells. The 50% inhibitory concentration (IC50) values were calculated by a nonlinear regression method using GraphPad software (Prism 3.03)

Data set [2] deals with TNF-α. Description: LPS-induced TNF-α production in peripheral blood mononuclear cells (secondary screening). The class given is cell-based. The conditions noted are these: 4.5 h, TNF-α production in PBMC, LPS 1 μg/ml, ELISA or L929 bioassay. On the procedure:
as §1
In general terms: ELISA stands for enzyme-linked immunosorbent assay.

Data set [3] concerns TNF-α. Description: Whole blood cell culture assay: LPS-induced TNF-α release (primary screening). Type of data set: cell-based, human. The conditions noted are these: Homo sapiens, Whole blood cell; test compound 1 μM; diluted whole blood of healthy donors; LPS 1 μg/ml, 4.5 h; vs DMSO control. On the procedure: TNF-α production by lipopolysaccharide (LPS) in whole blood was measured according to the method described by Wilson et al (J. Immunol. Methods, 139: 233-240, 1991). Briefly, blood was collected from healthy donors into potassium EDTA vacutainer tubes (Vacutest Plast/Becton Dickinson) and diluted with RPMI 1640 culture medium (Gibco BRL, Pasley, UK) containing 100 U/ml penicillin and 100 μg/ml streptomycin, (100× solution, Sigma Chemical Co. St Louis, Mo.) with no added serum. The white blood cell count was adjusted to 1×10^6 cells/ml and 100 μl/well of the diluted blood was transferred into 96-well culture plates. Following cell plating, 79 μl of culture medium and 1 μl of the test compounds (final concentration 1 μM) dissolved in DMSO (dimethylsulfoxide, Sigma, Mo., USA) was added to the cells. The final concentration of DMSO was adjusted to 0.5%. 1 μl of vehicle (0.5% DMSO) was used as control. Rolipram (100 μM) was used as a standard compound. The plates were incubated for 30 min at 37° C. in an atmosphere of 5% CO2. Finally, 20 μl (10 μg/ml) per well of LPS (Escherchia coli 0127:B8, Sigma Chemical Co., St. Louis, Mo.) was added, for a final concentration of 1 μg/ml. Plates were incubated at 37° C. for 4.5 h in an atmosphere of 5% CO2. Supernatants were harvested and assayed for TNF-α by ELISA as described by the manufacturer (R&D Systems, MN) or by cytotoxicity bioassay in L929 cells. Percent inhibition of TNF-α release in comparison to the control was calculated.

Data set [4] deals with TNF-α. Description: LPS-induced TNF-α release in BALB/c mice. The conditions noted are these: Mus musculus, LPS 1 mg/kg i.p. 1 h after dosing, plasma TNF-α 1.5 h after LPS, read-out: % inhibition (Mean ± SE*); for inhibition in vivo at 100 mg/kg: 100 mg/kg po. The class given is in vivo. On the procedure: The protocol described by Fukuda T. et al (Eur. J. Pharmacol., 391: 317-320, 2000) was followed. BALB/c mice were divided into groups of five to ten each. The test compound, suspended in Tween 80-0.5% carboxy methylcellulose (CMC), with a few drops of Tween 80 as wetting agent if necessary, was administered orally (p.o.) to the mice. One hour later, LPS dissolved in sterile, pyrogen-free saline was administered i.p. at the dose of 1 mg/kg. The negative control group received saline as an i.p injection, while all other groups received LPS. Rolipram (30 mg/kg) was used as the standard drug. One and a half hours later, blood was collected in heparin. Plasma was separated by centrifugation at 13000 rpm (Heraeus Biofuge Pico Centrifuge) at room temperature, aliquoted and stored at −70° C. until analysis.
TNF-α levels in the blood samples were assayed using ELISA and % inhibition of TNF-α release compared to the control group was calculated.

As usually defined, the melting point is the temperature, or range, at which the solid turns liquid. In general, IC50 refers to the concentration needed to halve the response being measured. Read a high IC50 as weaker potency in that assay. For orientation: inhibition means the change of the read-out against control, counted positive when it falls. Low values mean a response near the control, high ones a response far below the control. As for `COC(=O)c1cc(C)c2c(c1)S(=O)(=O)Cc1cc(N3CCN(C(=O)c4ccccc4C)CC3)cc(Cl)c1O2` [Example 24, 4-Chloro-6-methyl-2-[4-(2-methyl-benzoyl)-piperazin-1-yl]-10,10-dioxo-10,11-dihydro-5-oxa-10lambda*6*-thia-dibenzo[a,d]cycloheptene-8-carboxylic acid methyl ester], the melting point was 201 to 204 °C. The “% toxicity (10 μM), 5 h” value in data set [1] is reported as 03%. The same compound had an IC50 in the data set on TNF-α [2] of 3870 ± 1420 nM. In the data set on TNF-α [3], this compound showed an inhibition at 1 µM of 74%. Further, the inhibition in vivo at 30 mg/kg with TNF-α [4] (30 mg/kg po) was 17.6 ± 8.72%.

In the case of `COC(=O)c1cc(C)c2c(c1)S(=O)(=O)Cc1cc(N3CCCNCC3)cc(Cl)c1O2.Cl` [Example 29, 4-Chloro-2-[1,4]diazepan-1yl-6-methyl-10,10-dioxo-10,11-dihydro-5-oxa-10lambda*6*-thia-dibenzo[a,d]cycloheptene-8-carboxylic acid methyl ester hydrochloride], the melting point was 270 °C (dec.). For the same compound, in data set [1], the “% toxicity (10 μM), 5 h” value was found to be 23%. This compound also gave an IC50 with TNF-α [2] of 510 nM. The compound further came in with an inhibition at 1 µM with TNF-α [3] of 76%. Also, the inhibition in vivo at 100 mg/kg in the data set on TNF-α [4] was 79.1 ± 0.91%.

As for `COC(=O)c1cc(C)c2c(c1)S(=O)(=O)Cc1cc(N3CCNCC3)cc(Cl)c1O2.Cl` [Example 16, 4-Chloro-6-methyl-10,10-dioxo-2-piperazin-1-yl-10,11-dihydro-5-oxa-10lambda*6*-thia-dibenzo[a,d]-cycloheptene-8-carboxylic acid methyl ester hydrochloride], the melting point fell in the range of 277 to 280 °C. In data set [1], the “% toxicity (10 μM), 5 h” value was 62%. In addition, the IC50 in the data set with TNF-α [2] came to 180 nM. The inhibition at 1 µM in the data set on TNF-α [3] worked out at 41%. Further, the inhibition in vivo at 100 mg/kg with TNF-α [4] was 72.2 ± 3.17%.

As to `Cc1cc(C(=O)OC(C)C)cc2c1Oc1c(Cl)cc(NC=O)cc1CS2(=O)=O` [Example 11, 4-Chloro-2-formylamino-6-methyl-10,10-dioxo-10,11-dihydro-5-oxa-10lambda*6*-thia-dibenzo[a,d]cycloheptene-8-carboxylic acid isopropyl ester], the melting point lay within 212 to 215 °C. In addition, the “% toxicity (10 μM), 5 h” value in data set [1] was found to be 25%. Further, in the data set on TNF-α [2], half-maximal inhibition (IC50) required 21000 nM. The compound further yielded an inhibition at 1 µM in the data set on TNF-α [3] of 51%. Moreover, the inhibition in vivo at 100 mg/kg with TNF-α [4] was found to be 77.9 ± 9.85%.
